Data on 56 compounds can be found in US7772252B2, “Heterocyclic substituted carbonyl derivatives and their use as dopamine D3 receptor ligands” (Aventis Pharmaceuticals Inc., priority 2001, dated 2010).

pKi: −log10 of the molar value. Where two headings read alike, the source gives them in different places.

This experiment has as its target T1, cloned human dopamine D3 receptors (Homo sapiens, UniProt P35462).
T1 construct: expressed in transfected cells; membrane homogenate
The experiment can be described thus: [N-Methyl-3H]Spiroperidol binding to cloned human dopamine D3 receptors. In a few lines:
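Radioligand displacement with [N-methyl-3H]spiroperidol was run on membranes from a high-expressing CHO clone carrying human D3. Membranes were prepared in 10% DMSO and stored at −80° C.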

T1 sequence (P35462 whole entry): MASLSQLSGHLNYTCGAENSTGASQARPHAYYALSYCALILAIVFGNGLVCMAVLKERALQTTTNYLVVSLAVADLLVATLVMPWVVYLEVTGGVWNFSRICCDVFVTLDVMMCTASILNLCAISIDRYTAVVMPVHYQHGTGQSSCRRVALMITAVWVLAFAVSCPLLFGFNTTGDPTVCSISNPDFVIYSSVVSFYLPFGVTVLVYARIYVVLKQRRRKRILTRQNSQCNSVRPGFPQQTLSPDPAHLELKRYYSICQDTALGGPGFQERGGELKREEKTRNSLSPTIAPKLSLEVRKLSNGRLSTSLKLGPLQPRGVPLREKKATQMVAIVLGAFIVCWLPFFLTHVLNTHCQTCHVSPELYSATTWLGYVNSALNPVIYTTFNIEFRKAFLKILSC

Consider `O=C([C@@H]1C[C@H]1CN1CCC(c2nsc3cc(Br)ccc23)CC1)N1CCCC(Cn2ccnc2)C1` (mixture of isomers) [A002329099], for which the pKi (read-out: D3 Ki) is 8.69.

Take `CC[C@H]1CC[C@H](NC(=O)C2(CCN3CCN(c4csc5cc(C(F)(F)F)ccc45)CC3)CC2)CC1` [compound 832517]: the pKi (read-out: D3 Ki) was 6.76.

In the case of `O=C(NCCOc1ccccc1)[C@@H]1C[C@H]1CN1CCC(c2noc3ccsc23)CC1` [compound 831343], the pKi (read-out: D3 Ki) was 7.86.

As for `C[C@H]1CC[C@H](NC(=O)[C@@H]2C[C@H]2CN2CCC(c3nn(-c4ccc(F)cc4)c4cc(C(F)(F)F)ccc34)CC2)CC1` [compound 833698], the pKi (read-out: D3 Ki) is 6.87.

On to `COc1ccc(CN2CCC(NC(=O)C3CC3CN3CCC(c4noc5ccsc45)CC3)CC2)cc1` (racemic) [compound 831795], for which, under “read-out: D3 Ki”, the pKi was 8.74.

Take `COc1ccccc1CN1CCC(NC(=O)[C@@H]2C[C@H]2CN2CCN(c3csc4cc(C(F)(F)F)ccc34)CC2)CC1` [compound 832739]: the pKi (read-out: D3 Ki) is 8.54.

As for `O=C(NCCCc1cccnc1)[C@@H]1C[C@H]1CN1CCC(c2noc3ccsc23)CC1` [compound 831195], the pKi (read-out: D3 Ki) was 8.74.

Turning to `O=C(NCc1ccc(-c2ccccc2)cc1)C1CC1CN1CCC(c2noc3ccsc23)CC1` (racemic) [compound 831455], the pKi (read-out: D3 Ki) is 8.17.

For `O=C(NCCNC(=O)C1CC1CN1CCC(c2noc3ccsc23)CC1)OCc1ccccc1` (racemic) [compound 831649], the pKi (read-out: D3 Ki) was 6.76.

As for `Cn1nc(C2CCN(C[C@@H]3C[C@H]3C(=O)N3CCC[C@@H](Cn4ccnc4)C3)CC2)c2ccc(C(F)(F)F)cc21` [A002437353, (3S-Imidazol-1-ylmethyl-piperidin-1-yl)-{2R-[4-(1-methyl-6-trifluoromethyl-1H-indazol-3-yl)-piperidin-1-ylmethyl]-1R-cyclopropyl}-methanone], for the setting “read-out: D3 Ki”, the pKi was 9.03.

As for `O=C(NCCC1=CCCCC1)[C@@H]1C[C@H]1CN1CCC(c2noc3ccsc23)CC1` [compound 831215], under “read-out: D3 Ki”, the pKi is 8.23.

Turning to `O=C(NCCCCc1cccnc1)C1CC1CN1CCC(c2noc3ccsc23)CC1` (racemic) [compound 831686], where the note is “read-out: D3 Ki”, the pKi was 7.60.

For `O=C(CCCN1CCN(c2csc3cc(F)ccc23)CC1CCCc1ccccc1)N(CCO)C1CCCCC1` (centres unmarked) [compound 827111], the pKi (read-out: d3Ki) was 7.84.

In the case of `C[C@H]1CC[C@H](NC(=O)[C@@H]2C[C@H]2CN2CCC(c3nn(-c4ccccc4)c4ccsc34)CC2)CC1` [compound 833909], the pKi (read-out: D3 Ki) was 8.73.

For `O=C(NC1CCN(C(=O)c2ccc(Cl)nc2)CC1)C1CC1CN1CCC(c2noc3ccsc23)CC1` (racemic) [compound 832505], where the note is “read-out: D3 Ki”, the pKi was 7.39.

In the case of `O=C(NCCCn1ccnc1)C1(CCN2CCC(c3noc4ccsc34)CC2)CC1` [compound 832171], the pKi (read-out: D3 Ki) was 8.31.

Regarding `O=C(NC1CCN(CCc2cccc(Cl)c2)CC1)[C@@H]1C[C@H]1CN1CCC(c2noc3ccsc23)CC1` [compound 833748], where the note is “read-out: D3 Ki”, the pKi is 8.86.

`O=C([C@@H]1C[C@H]1CN1CCC(c2noc3ccsc23)CC1)N1CCC(Oc2ccc(Cl)cc2)CC1` [compound 832723]: where the note is “read-out: D3 Ki”, the pKi is 7.27.

Consider `CC(C)(C)OC(=O)NCCN1CCN(C(=O)[C@@H]2C[C@H]2CN2CCN(c3csc4cc(C(F)(F)F)ccc34)CC2)CC1` [compound 833278], for which the pKi (read-out: D3 Ki) is 8.15.

Take `COc1cccc2c(C3CCN(C[C@@H]4C[C@H]4C(=O)NC4CC5CCC4(C)C5(C)C)CC3)nn(C)c12` (some centres unmarked) [compound 834055]: for the setting “read-out: D3 Ki”, the pKi is 7.21.

For the compound `O=C(NC1CCN(CC2CC2)CC1)C1CC1CN1CCC(c2noc3ccsc23)CC1` (racemic) [compound 832341], the pKi (read-out: D3 Ki) was 8.58.

Turning to `Cn1nc(C2CCN(C[C@@H]3C[C@H]3C(=O)NCC3CCNCC3)CC2)c2cccc(C(F)(F)F)c21` [A002440433A], the pKi (read-out: D3 Ki) was 6.74.

Consider `O=C(NC1CCN(Cc2c(Cl)cccc2Cl)CC1)C1CC1CN1CCC(c2noc3ccsc23)CC1` (racemic) [compound 831821], for which the pKi (read-out: D3 Ki) is 7.62.

As to `CN1CCCC1CCNC(=O)[C@@H]1C[C@H]1CN1CCN(c2csc3cc(C(F)(F)F)ccc23)CC1` (mixture of isomers) [compound 831884], for the setting “read-out: D3 Ki”, the pKi was 8.71.

On to `CN1CCCC1CCNC(=O)[C@@H]1C[C@H]1CN1CCC(c2noc3ccsc23)CC1` (single isomer, unassigned) [compound 832513], for which, where the note is “read-out: D3 Ki”, the pKi is 7.26.

Regarding `COc1c(F)ccc2c(C3CCN(C[C@H]4C[C@@H]4C(=O)N[C@H]4CC[C@H](C)CC4)CC3)noc12` [compound 831360], where the note is “read-out: D3 Ki”, the pKi was 7.77.

With `O=C(NC1CCN(Cc2cc(F)ccc2F)CC1)[C@@H]1C[C@H]1CN1CCC(c2noc3ccsc23)CC1` [compound 833168], the pKi (read-out: D3 Ki) is 8.51.

As for `COc1ccc2c(c1)c(N1CCN(C[C@@H]3C[C@H]3C(=O)NC3CCN(Cc4ccc(F)cc4F)CC3)CC1)nn2C` [compound 833627], the pKi (read-out: D3 Ki) is 8.79.

As for `COc1ccc2c(c1)c(N1CCN(C[C@@H]3C[C@H]3C(=O)NCCc3ccc(F)cc3)CC1)nn2C` [compound 833629], the pKi (read-out: D3 Ki) was 8.57.

Regarding `COc1ccc(CN2CCN(C(=O)C3CC3CN3CCC(c4noc5ccsc45)CC3)CC2)cc1` (racemic) [compound 832155], where the note is “read-out: D3 Ki”, the pKi was 9.36.

For the compound `COc1ccc(CN2CCN(C(=O)[C@@H]3C[C@H]3CN3CCC(c4noc5ccsc45)CC3)CC2)cc1` [compound 833133], the pKi (read-out: D3 Ki) was 6.94.

For the compound `COc1cc2c(cc1OC)CN(C(=O)[C@@H]1C[C@H]1CN1CCC(c3noc4ccsc34)CC1)CC2` [compound 831196], under “read-out: D3 Ki”, the pKi is 8.11.

For `O=C([C@@H]1C[C@H]1CN1CCC(c2noc3ccc(C(F)(F)F)cc23)CC1)N1CCC(Cn2ccnc2)CC1` [A002200836], the pKi (read-out: D3 Ki) is 8.82.

On to `COc1ccc2c(c1)c(N1CCN(C[C@@H]3C[C@H]3C(=O)NCC3CCN(C(C)=O)CC3)CC1)nn2C` [compound 833197], for which the pKi (read-out: D3 Ki) was 7.34.

`O=C(NC1CCN(Cc2cccnc2)CC1)[C@@H]1C[C@H]1CN1CCC(c2noc3ccsc23)CC1` [compound 833485]: the pKi (read-out: D3 Ki) is 8.52.

As to `CN1CCN(CCCNC(=O)[C@@H]2C[C@H]2CN2CCC(c3noc4c(C(F)(F)F)cccc34)CC2)CC1` [A002438639], the pKi (read-out: D3 Ki) was 7.01.

`O=C([C@@H]1C[C@H]1CN1CCC(c2noc3ccsc23)CC1)N1CCC(n2ccnc2)CC1` [compound 833164]: the pKi (read-out: D3 Ki) was 7.28.

Turning to `CC(=O)N1CCC(CNC(=O)[C@@H]2C[C@H]2CN2CCN(c3csc4cc(C(F)(F)F)ccc34)CC2)CC1` [compound 833065], for the setting “read-out: D3 Ki”, the pKi is 6.16.

With `O=C([C@@H]1C[C@H]1CN1CCN(c2csc3cc(C(F)(F)F)ccc23)CC1)N1CCC[C@@H](Cn2ccnc2)C1` [compound 833097], the pKi (read-out: D3 Ki) was 9.05.

Turning to `O=C([C@@H]1C[C@H]1CN1CCC(c2noc3cc(C(F)(F)F)ccc23)CC1)N1CCC[C@@H](Cn2ccnc2)C1` [A002287766], under “read-out: D3 Ki”, the pKi was 6.90.

Take `COc1cccc2c(C3CCN(C[C@@H]4C[C@H]4C(=O)NC4CC5CCC(C4)N5C)CC3)nn(C)c12` (some centres unmarked) [A002328939]: the pKi (read-out: D3 Ki) was 6.70.

For the compound `O=C(NCCCn1ccnc1)[C@@H]1C[C@H]1CN1CCC(c2nn(CC(F)(F)F)c3ccsc23)CC1` [A002287767, 2R-{4-[1-(2,2,20Trifluoro-ethyl)-1H-thieno[3,2-c]pyrazol-3-yl)-piperidin-1-ylmethyl]-1R-cycloproanecarboxylic acid (3-imidazol-1-yl-propyl)-amide], the pKi (read-out: D3 Ki) was 8.48.

Consider `CC1CCC(NC(=O)C2CC2CN2CCC(Cc3ccccc3)CC2)CC1` (racemic) [compound 827209], for which the pKi (read-out: D3 Ki) was 7.52.

Regarding `O=C([C@@H]1C[C@H]1CN1CCN(c2csc3cc(C(F)(F)F)ccc23)CC1)N1CCC[C@@H](CO)C1` [A002438637], the pKi (read-out: D3 Ki) was 7.67.

In the case of `CC1CCN(CCCNC(=O)[C@@H]2C[C@H]2CN2CCN(c3nn(C)c4ccsc34)CC2)CC1` [A002350369], the pKi (read-out: D3 Ki) was 7.00.

On to `O=C(c1ccc(Cl)cc1)C1CCN(C(=O)[C@@H]2C[C@H]2CN2CCN(c3csc4cc(C(F)(F)F)ccc34)CC2)CC1` [compound 831882], for which the pKi (read-out: D3 Ki) was 7.24.

Take `O=C(NC1CCN(Cc2ccccc2)CC1)C1CC1CN1CCC(c2noc3ccsc23)CC1` (racemic) [compound 831457]: where the note is “read-out: D3 Ki”, the pKi was 8.74.

As to `O=C(NNC(=O)C1CC1CN1CCC(c2noc3ccsc23)CC1)c1ccc(Cl)cc1` (racemic) [compound 831812], the pKi (read-out: D3 Ki) is 6.34.

As to `CC[C@H]1CC[C@H](NC(=O)C2(CCN3CCC(c4noc5ccsc45)CC3)CC2)CC1` [832242A], the pKi (read-out: D3 Ki) was 6.36.

Take `Cn1nc(C2CCN(C[C@@H]3C[C@H]3C(=O)N3CCC(N4CCCCC4)CC3)CC2)c2cccc(C(F)(F)F)c21` [compound 833091]: the pKi (read-out: D3 Ki) is 6.93.

As to `Cc1ncc([N+](=O)[O-])n1CCNC(=O)[C@@H]1C[C@H]1CN1CCC(c2noc3ccsc23)CC1` [compound 831379], the pKi (read-out: D3 Ki) was 7.33.

In the case of `C[C@H]1CC[C@H](NC(=O)C2(CCN3CCC(c4noc5ccsc45)CC3)CC2)CC1` [832241A], the pKi (read-out: D3 Ki) is 7.29.

In the case of `Cc1ccc(CN2CCN(C(=O)C3CC3CN3CCC(c4noc5ccsc45)CC3)CC2)cc1` (racemic) [compound 832154], for the setting “read-out: D3 Ki”, the pKi is 7.66.

Regarding `O=C(NC1CCN(Cc2cc(F)cc(F)c2)CC1)C1CC1CN1CCC(c2noc3ccsc23)CC1` (racemic) [compound 832343], under “read-out: D3 Ki”, the pKi is 9.14.

As for `O=C([C@@H]1C[C@H]1CN1CCC(c2noc3c(C(F)(F)F)cccc23)CC1)N1CCC[C@@H](Cn2ccnc2)C1` [A002437360, (3S-Imidazol-1-ylmethyl-piperidin-1-yl)-{2R-[4-(7-trifluoromethyl-benzo[d]isoxazol-3-yl)-piperidin-1-ylmethyl]-1R-cyclopropyl}-methanone], the pKi (read-out: D3 Ki) was 9.62.

`O=C([C@@H](O)CCN1CCC(c2noc3ccsc23)CC1)N1CCCCC1` [compound 830557]: the pKi (read-out: D3 Ki) was 7.01.
